Measurements from patent publication US9845482B2, “Compositions and methods for enhancing bioenergetic status in female germ cells” (The General Hospital Corporation, priority 2011, dated 2017).

How the values were obtained:
Type in all cases: in vivo
[1] = tested on: aged female mice (C57BL/6); assay: Dietary supplementation of aged female mice: oocyte yield, maturation and quality after superovulation; settings: for percentage of mature, metaphase II oocytes retrieved following superovulation / quality of oocytes in aged mice: compared to age appropriate controls (Hist 12 M); for oocyte yield: diet for 3 months from 8.5 months of age, apigenin 0.5 g/kg, luteolin 0.5 g/kg, SRT-1720 2 g/kg, superovulation
Description: Yield, maturational status and post-fertilization developmental competency of oocytes obtained from 12-month-old (aged) female mice returned to an ad-libitum (AL) diet for 1 month following 7.5 months of dietary CR (CR-AL-fed) initiated in a stepwise fashion at 3.5 months of age were first evaluated. This protocol was based on prior work showing that female mice maintained on CR during adulthood continue to breed and deliver offspring into advanced ages after their return to an AL diet (Selesniemi et al. 2008 Aging Cell 7:622-629). Mice were superovulated by injection of pregnant mare serum gonadotropin (PMSG, 10 IU; Sigma Aldrich Corporation, St. Louis, Mo., USA) followed by human chorionic gonadotropin (hCG, 10 IU; Sigma Aldrich Corporation, St. Louis, Mo., USA) 46-48 hours later. Oocytes were collected from oviducts 15-16 hours after hCG injection, denuded of cumulus cells using hyaluronidase (Irvine Scientific, Santa Ana, Calif., USA), washed with human tubal fluid (HTF; Irvine Scientific, Santa Ana, Calif., USA) supplemented with BSA (fraction V, fatty acid-free; Sigma Aldrich Corporation, St. Louis, Mo., USA), and classified as MII (first polar body in perivitelline space), maturation arrested (germinal vesicle breakdown with no polar body extrusion, or germinal vesicle intact), or degenerated.
(§1) Female mice (8 months old, strain C57BL/6) were maintained on a 12:12 light dark cycle and provided ad-libitum access to water and food. Conditions within rooms were maintained at 21°±1° C. with 50%±20% relative humidity. Mice were placed on the experimental diets at 8.5 months of age and were maintained for 3 months on the diets. All diets were custom made, ordered from Research Diets: OpenStandard Diet (20 kcal % Protein, 15 kcal % Fat and 65 kcal % Carbohydrate) and the experimental groups consisted of regular OpenStandard Diet, OpenStandard Diet+Apigenin at 0.5 g/kg of body weight, OpenStandard Diet+Luteolin at 0.5 g/kg, and OpenStandard Diet+SRT-1720 at 2 g/kg. Food intake was measured weekly and average weight gain was assessed every two weeks. Each experimental group consisted of 12 randomly allocated mice. When mice were euthanized an additional group of 3-month old C57BL/6 females (3 M) were used as positive controls. In all groups, oocyte numbers were assessed following hormonal stimulation for superovulation.
Because of the extremely low yield of oocytes from the aged control females, historical data for oocyte yield from 12-month-old C57BL/6 females (referred to as “Hist 12 M”; from Selesniemi et al., Proc Natl Acad Sci USA. 2011 July 26; 108(30): 12319-12324) can be used as an additional reference point for an aged control group.
In FIG. 45A, the percentage of oocytes assessed at metaphase II is shown. In FIG. 45B, the percentage of oocytes arrested at the germinal vesicle (immature) stage is shown. In FIG. 45C, the percentage of atretic (dead) oocytes is shown.

[2] = tested on: oocytes of aged female mice (C57BL/6); assay: Dietary supplementation of aged female mice: mitochondrial distribution in oocytes; settings: for percentage of oocytes exhibiting abnormal mitochondrial clustering (change): compared to Hist 12 M; for abnormal mitochondrial distribution, present in % of oocytes: diet for 3 months, apigenin 0.5 g/kg, luteolin 0.5 g/kg, SRT-1720 2 g/kg
Procedure: Whether mitochondrial aggregation, which has been linked to the decline in oocyte quality with advancing age (Tarín et al. Biol Reprod 2001 65:141-150), was affected by caloric intake was assessed. Oocytes were denuded of cumulus cells, incubated in MitoTracker Red CMRox (Life Technologies), and processed for microscopic analysis. Levels of ATP in individual MII oocytes were determined using a commercially available bioluminescent assay kit under the manufacturer's specifications (Sigma Aldrich Corporation, St. Louis, Mo., USA).
as §1
(§2) Methods for determining spindle abnormalities and chromosomal misalignment are described above in Example 8. Abnormal mitochondrial distribution was determined to be present in 16.13% of oocytes from 3 M mice, 46% of oocytes from Hist 12 M mice, 7.7% of oocytes following supplementation with apigenenin, 12% of oocytes following supplementation with luteolin and 6.9% of oocytes following supplementation with SRT-1720. Spindle abnormalities were determined to be present in 18.3% of oocytes in 3 M mice, 60% of oocytes in Hist 12 M mice, 32% of oocytes following supplementation with apigenenin, 32% of oocytes following supplementation with luteolin and 32.8% of oocytes following supplementation with SRT-1720. Chromosomal misalignment was determined to be present 18.3% of oocytes in 3 M mice, 62% of oocytes in Hist 12 M mice, 44% of oocytes from mice supplemented with apigenenin, 40% of oocytes following supplementation with luteolin and 40.9% of oocytes following supplementation with SRT-1720.

[3] = tested on: MII oocytes of aged female mice (C57BL/6); assay: Dietary supplementation of aged female mice: spindle abnormalities and chromosomal misalignment in MII oocytes; settings: for chromosomal misalignment in MII oocytes (change) / percentage of spindle abnormalities in MII oocytes (change): compared to Hist 12 M; for chromosomal misalignment, present in % of oocytes / spindle abnormalities, present in % of oocytes: diet for 3 months, apigenin 0.5 g/kg, luteolin 0.5 g/kg, SRT-1720 2 g/kg
Procedure: Confocal analysis of α-tubulin and DNA distribution were examined. Superovulated oocytes were denuded of cumulus cells, briefly incubated in Acidified Tyrode's Solution (Irvine Scientific, Santa Ana, Calif., USA) to soften the zona pellucida, and immunostained using mouse anti-α-tubulin antibody (Sigma Aldrich Corporation, St. Louis, Mo., USA) followed by goat anti-mouse IgG conjugated with Alexa Fluor-488 (Life Technologies, Carlsbad, Calif.). Oocytes were mounted using Vectashield containing propidium iodide (PI; Vector Laboratories) and analyzed by confocal microscopy.
as §1, §2

Row | Structure (SMILES) | percentage of mature, metaphase II oocytes retrieved following superovulation [1] | quality of oocytes in aged mice [1] | oocyte yield [1] | percentage of oocytes exhibiting abnormal mitochondrial clustering (change) [2] | abnormal mitochondrial distribution, present in % of oocytes [2] [%] | chromosomal misalignment in MII oocytes (change) [3] | percentage of spindle abnormalities in MII oocytes (change) [3] | chromosomal misalignment, present in % of oocytes [3] [%] | spindle abnormalities, present in % of oocytes [3] [%]
1 | O=C(Nc1ccccc1-c1cn2c(CN3CCNCC3)csc2n1)c1cnc2ccccc2n1 [SRT-1720, N-[2[3-(piperazin-1-ylmethyl)imidazo[2,1-b][1,3]thiazol-6-yl]phenyl]quinoxaline-2-carboxamide] | do not affect | improve the quality of oocytes | increase oocyte yield | reduced | 6.9 | reduced chromosomal misalignment | reduced percentage of spindle abnormalities | 40.9 | 32.8
2 | O=c1cc(-c2ccc(O)cc2)oc2cc(O)cc(O)c12 [apigenin, 5,7-Dihydroxy-2-(4-hydroxyphenyl)-4H-1-benzopyran-4-one] | do not affect | improve the quality of oocytes | increase oocyte yield | reduced | 7.7 | reduced chromosomal misalignment | reduced percentage of spindle abnormalities | 44 | 32
3 | O=c1cc(-c2ccc(O)c(O)c2)oc2cc(O)cc(O)c12 [luteolin, 2-(3,4-Dihydroxyphenyl)-5,7-dihydroxy-4-chromenone] | do not affect | improve the quality of oocytes | increase oocyte yield | reduced | 12 | reduced chromosomal misalignment | reduced percentage of spindle abnormalities | 40 | 32
